For experiment [1], the system named is Mus musculus. As to the kind of experiment: Analgesic activity was evaluated in the acetic acid induced stretching paradigm after subcutaneous administration. Particulars: sc. It counts as functional.
Experiment [2] concerns Mus musculus. As to the kind of experiment: Compound was tested in vivo for its ability to inhibit spontaneous locomotor activity of mice; intraperitoneal administration. It counts as functional. The note with it: ip.
For experiment [3], the target named is T1, Neurotensin receptor type 1 (Mus musculus, UniProt O88319). Description: Binding affinity for Neurotensin Receptor.
For experiment [4], the system named is Mus musculus. As to the kind of experiment: Compound was tested in vivo for its ability to inhibit spontaneous locomotor activity of mice after intraperitoneal administration. It counts as functional. The note with it: ip.
Experiment [5] concerns HT-29. As to the kind of experiment: Compound was tested in vitro to mobilize calcium from HT-29 cells. It counts as functional, cell-based. Particulars: Homo sapiens.
For experiment [6], the target named is T1, Neurotensin receptor type 1. Description: Compound was tested in vitro for its binding affinity against Neurotensin Receptor […].
For experiment [7], the system named is Mus musculus. As to the kind of experiment: Compound was tested in vivo for its ability to inhibit spontaneous locomotor activity of mice after intracerebroventricular administration. In kind it is functional. Particulars: central.

The source of these data is ChEMBL document CHEMBL1150005, “Reduced amide bond neurotensin 813 mimetics with potent in vivo activity” (Bioorg Med Chem Lett, 1995).

Numbered stars: 1 amine (or outer) side, 2 acyl side, 3 side chain; on linkers, the order of the positions; unused ones are H or OH. Square brackets hold non-standard residues; d marks the D form. Peptide text beside a SMILES is read from it. * marks the point of attachment. X3 = NCCCC[C@@H](C(=O)[*:2])N(C[C@@H](N)CCCN=C(N)N)[*:1]; X1 = NCCCC[C@H](N)CN([C@@H](CCCCN)C(=O)[*:2])[*:1]; X2 = NCCCCCCN([C@@H](CCCCN)C(=O)[*:2])[*:1]; X6 = N=C(N)NCCCC(CCCNC(=N)N)C(=O)*; X7 = NC(N)=NCCCC(CCCN=C(N)N)C(=O)*; NMeR = CN[C@@H](CCCNC(=N)N)C(=O)O; Tle = CC(C)(C)[C@H](N)C(=O)O; X4 = NCCCCC(CCCCN)C(=O)*; X5 = NCCCC(CCCN)C(=O)*

T1 sequence (O88319 whole entry): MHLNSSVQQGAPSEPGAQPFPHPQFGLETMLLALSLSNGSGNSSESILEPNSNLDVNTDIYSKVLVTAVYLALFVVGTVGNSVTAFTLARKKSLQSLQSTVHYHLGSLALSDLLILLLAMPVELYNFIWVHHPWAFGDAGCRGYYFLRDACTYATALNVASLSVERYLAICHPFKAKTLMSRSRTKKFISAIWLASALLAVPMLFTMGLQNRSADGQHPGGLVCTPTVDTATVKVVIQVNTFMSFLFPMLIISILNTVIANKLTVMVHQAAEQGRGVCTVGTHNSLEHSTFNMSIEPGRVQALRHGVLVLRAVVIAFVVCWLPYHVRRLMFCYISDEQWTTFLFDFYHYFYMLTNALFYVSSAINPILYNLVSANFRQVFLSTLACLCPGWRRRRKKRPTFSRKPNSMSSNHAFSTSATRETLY

With `CCOC(=O)[C@H](CC(C)C)NC(=O)[C@@H](NC(=O)[C@H](Cc1c[nH]c2ccccc12)NC(=O)[C@@H]1CCCN1C(=O)[C@H](CCCCN)NCCCCCCN)C(C)(C)C` (H-[X2]PW[Tle]L-OEt) [listing 1 of 2 here], the results for the ED50 in experiment [1] and in experiment [2] were 0.05 mg/kg and 0.3 mg/kg, respectively.

Regarding `CC(C)C[C@H](NC(=O)[C@@H](NC(=O)[C@H](Cc1c[nH]c2ccccc12)NC(=O)[C@@H]1CCCN1C(=O)[C@H](CCCCN)NC[C@@H](N)CCCN=C(N)N)C(C)(C)C)C(=O)O` (H-[X3]PW[Tle]L-OH) [listing 1 of 2 here], the Ki (in general, the dissociation constant of the complex between target and ligand, obtained from inhibition or displacement) in experiment [3] is 17.1 nM.

As to `CC[C@H](C)[C@H](NC(=O)[C@H](Cc1ccc(O)cc1)NC(=O)[C@@H]1CCCN1C(=O)[C@H](CCCCN)NC[C@@H](N)CCCCN)C(=O)N[C@@H](CC(C)C)C(=O)O` (H-[X1]PYIL-OH) [listing 1 of 2 here], the Ki in experiment [3] worked out at 0.15 nM.

Turning to `CC(C)C[C@H](NC(=O)[C@@H](NC(=O)[C@H](Cc1c[nH]c2ccccc12)NC(=O)[C@@H]1CCCN1C(=O)[C@@H](N)CCCCN)C(C)(C)C)C(=O)O` (H-KPW[Tle]L-OH), the ED50 (usually the midpoint of the dose-response relation) in experiment [4] was > 10 mg/kg. This molecule also had a Ki in experiment [3] of 60 nM.

In the case of `CCOC(=O)[C@H](CC(C)C)NC(=O)[C@@H](NC(=O)[C@H](Cc1c[nH]c2ccccc12)NC(=O)[C@@H]1CCCN1C(=O)[C@H](CCCCN)NC[C@@H](N)CCCCN)C(C)(C)C` (H-[X1]PW[Tle]L-OEt) [listing 1 of 2 here], the EC50 (as a rule, the concentration that produces a half-maximal response) in experiment [5] turned out to be 4500 nM. This molecule also had a Ki in experiment [3] of 31.2 nM.

As to `CC(C)C[C@H](NC(=O)[C@@H](NC(=O)[C@H](Cc1c[nH]c2ccccc12)NC(=O)[C@@H]1CCCN1C(=O)[C@H](CCCCN)NC[C@@H](N)CCCCN)C(C)(C)C)C(=O)O` (H-[X1]PW[Tle]L-OH) [listing 1 of 2 here], the EC50 in experiment [5] is 362 nM. In addition, the affinity in experiment [3] corresponds to a Ki of 1.13 nM.

Consider `CC[C@H](C)[C@H](NC(=O)[C@H](Cc1ccc(O)cc1)NC(=O)[C@@H]1CCCN1C(=O)[C@H](CCCNC(=N)N)NC(=O)[C@@H](N)CCCNC(=N)N)C(=O)N[C@@H](CC(C)C)C(=O)O` [listing 1 of 2 here], for which the EC50 in experiment [5] was found to be 4.21 nM.

Turning to `CC[C@H](C)[C@H](NC(=O)[C@H](Cc1c[nH]c2ccccc12)NC(=O)[C@@H]1CCCN1C(=O)[C@H](CCCCN)NC[C@@H](N)CCCCN)C(=O)N[C@@H](CC(C)C)C(=O)O` (H-[X1]PWIL-OH) [listing 1 of 2 here], the EC50 in experiment [5] was found to be 110 nM. Moreover, the affinity in experiment [3], expressed as Ki, was 0.06 nM.

Turning to `CC[C@H](C)[C@H](NC(=O)[C@H](Cc1ccc(O)cc1)NC(=O)[C@@H]1CCCN1C(=O)[C@H](CCCNC(=N)N)NC(=O)[C@@H](N)CCCNC(=N)N)C(=O)N[C@@H](CC(C)C)C(=O)O` [listing 2 of 2 here], the ED50 in experiment [1] and in experiment [2] was > 10 mg/kg throughout.

For the molecule `CC(C)C[C@H](NC(=O)[C@@H](NC(=O)[C@H](Cc1c[nH]c2ccccc12)NC(=O)[C@@H]1CCCN1C(=O)[C@H](CCCCN)NC[C@@H](N)CCCCN)C(C)(C)C)C(=O)O` (H-[X1]PW[Tle]L-OH) [listing 2 of 2 here], it took a dose of 0.14 mg/kg to reach the 50% effect level in experiment [4] (ED50).

On to `CC(C)C[C@H](NC(=O)[C@@H](NC(=O)[C@H](Cc1ccc(O)cc1)NC(=O)[C@@H]1CCCN1C(=O)[C@H](CCCCN)NC[C@@H](N)CCCCN)C(C)(C)C)C(=O)O` (H-[X1]PY[Tle]L-OH) [listing 1 of 2 here], for which, in experiment [5], the EC50 turned out to be 512 nM. The Ki in experiment [3] was 0.4 nM.

On to `CC(C)C[C@H](NC(=O)[C@@H](NC(=O)[C@H](Cc1c[nH]c2ccccc12)NC(=O)[C@@H]1CCCN1C(=O)C(CCCN=C(N)N)CCCN=C(N)N)C(C)(C)C)C(=O)O` (X7-PW[Tle]L-OH), for which, in experiment [4], the ED50 stood at 1.5 mg/kg.

As to `CCOC(=O)[C@H](CC(C)C)NC(=O)[C@@H](NC(=O)[C@H](Cc1c[nH]c2ccccc12)NC(=O)[C@@H]1CCCN1C(=O)[C@H](CCCCN)NC[C@@H](N)CCCN=C(N)N)C(C)(C)C` (H-[X3]PW[Tle]L-OEt) [listing 1 of 2 here], in experiment [3], the Ki was found to be 437 nM.

On to `CN[C@@H](CCCNC(=N)N)C(=O)N[C@@H](CCCCN)C(=O)N1CCC[C@H]1C(=O)N[C@@H](Cc1c[nH]c2ccccc12)C(=O)N[C@H](C(=O)N[C@@H](CC(C)C)C(=O)O)C(C)(C)C` (H-[NMeR]KPW[Tle]L-OH), for which the affinity in experiment [6], expressed as Ki, was 0.064 nM.

As for `CC[C@H](C)[C@H](NC(=O)[C@H](Cc1c[nH]c2ccccc12)NC(=O)[C@@H]1CCCN1C(=O)[C@H](CCCCN)NC[C@@H](N)CCCCN)C(=O)N[C@@H](CC(C)C)C(=O)O` (H-[X1]PWIL-OH) [listing 2 of 2 here], the ED50 in experiment [4] was found to be 6.3 mg/kg.

For `CC[C@H](C)[C@H](NC(=O)[C@H](Cc1ccc(O)cc1)NC(=O)[C@@H]1CCCN1C(=O)[C@H](CCCCN)NC[C@@H](N)CCCCN)C(=O)N[C@@H](CC(C)C)C(=O)O` (H-[X1]PYIL-OH) [listing 2 of 2 here], the ED50 in experiment [4] is > 10 mg/kg.

`CC(C)C[C@H](NC(=O)[C@@H](NC(=O)[C@H](Cc1c[nH]c2ccccc12)NC(=O)[C@@H]1CCCN1C(=O)C(CCCN)CCCN)C(C)(C)C)C(=O)O` (X5-PW[Tle]L-OH) [listing 1 of 2 here] showed an ED50 in experiment [4] of 0.5 mg/kg.

For `CC(C)C[C@H](NC(=O)[C@@H](NC(=O)[C@H](Cc1c[nH]c2ccccc12)NC(=O)[C@@H]1CCCN1C(=O)C(CCCCN)CCCCN)C(C)(C)C)C(=O)O` (X4-PW[Tle]L-OH) [listing 1 of 2 here], the Ki in experiment [3] is 3.8 nM.

Turning to `CC(C)C[C@H](NC(=O)[C@@H](NC(=O)[C@H](Cc1c[nH]c2ccccc12)NC(=O)[C@@H]1CCCN1C(=O)C(CCCNC(=N)N)CCCNC(=N)N)C(C)(C)C)C(=O)O` (stereo partly drawn) (X6-PW[Tle]L-OH), in experiment [3], the Ki was 0.1 nM.

As for `CC(C)C[C@H](NC(=O)[C@@H](NC(=O)[C@H](Cc1c[nH]c2ccccc12)NC(=O)[C@@H]1CCCN1C(=O)C(CCCN)CCCN)C(C)(C)C)C(=O)O` (X5-PW[Tle]L-OH) [listing 2 of 2 here], affinity in experiment [3] was put at a Ki of 17 nM.

In experiment [4], `CCOC(=O)[C@H](CC(C)C)NC(=O)[C@@H](NC(=O)[C@H](Cc1c[nH]c2ccccc12)NC(=O)[C@@H]1CCCN1C(=O)[C@H](CCCCN)NC[C@@H](N)CCCCN)C(C)(C)C` (H-[X1]PW[Tle]L-OEt) [listing 2 of 2 here] gave an ED50 of 0.21 mg/kg.

With `CC(C)C[C@H](NC(=O)[C@@H](NC(=O)[C@H](Cc1c[nH]c2ccccc12)NC(=O)[C@@H]1CCCN1C(=O)C(CCCCN)CCCCN)C(C)(C)C)C(=O)O` (X4-PW[Tle]L-OH) [listing 2 of 2 here], the ED50 in experiment [4] was 0.6 mg/kg.

In experiment [4], `CC(C)C[C@H](NC(=O)[C@@H](NC(=O)[C@H](Cc1ccc(O)cc1)NC(=O)[C@@H]1CCCN1C(=O)[C@H](CCCCN)NC[C@@H](N)CCCCN)C(C)(C)C)C(=O)O` (H-[X1]PY[Tle]L-OH) [listing 2 of 2 here] yielded an ED50 of 0.9 mg/kg.

As for `CCOC(=O)[C@H](CC(C)C)NC(=O)[C@@H](NC(=O)[C@H](Cc1c[nH]c2ccccc12)NC(=O)[C@@H]1CCCN1C(=O)[C@H](CCCCN)NC[C@@H](N)CCCN=C(N)N)C(C)(C)C` (H-[X3]PW[Tle]L-OEt) [listing 2 of 2 here], the ED50 in experiment [7] came to 1.6 mg/kg; in experiment [2], 0.15 mg/kg.

Consider `CC(C)C[C@H](NC(=O)[C@@H](NC(=O)[C@H](Cc1c[nH]c2ccccc12)NC(=O)[C@@H]1CCCN1C(=O)[C@H](CCCCN)NC[C@@H](N)CCCN=C(N)N)C(C)(C)C)C(=O)O` (H-[X3]PW[Tle]L-OH) [listing 2 of 2 here], for which the ED50 amounted to 0.3 mg/kg in experiment [1] and 0.48 mg/kg in experiment [2].

In experiment [3], `CCOC(=O)[C@H](CC(C)C)NC(=O)[C@@H](NC(=O)[C@H](Cc1c[nH]c2ccccc12)NC(=O)[C@@H]1CCCN1C(=O)[C@H](CCCCN)NCCCCCCN)C(C)(C)C` (H-[X2]PW[Tle]L-OEt) [listing 2 of 2 here] yielded a Ki of 27 nM.
